Results from ChEMBL document CHEMBL3045040, “Synthesis and antiproliferative activity of 1-[(sub)]-6-fluoro-3-[(sub)]-1, 3,4-oxadiazol-2-yl-7-piperazino-1, 4-dihydro-4-quinolinone derivatives” (Med Chem Res, 2007).
Values after ≈ are worked out from the molar mass of the structure shown.

test system: A549; test: Cytotoxicity against Homo sapiens (human) A549 cells assessed as cell viability by MTT assay; format: functional, cell-based

Compared with `O=c1c(-c2nnc(-c3ccccc3)o2)cn(C2CC2)c2cc(N3CCNCC3)c(F)cc12`, `O=c1c(-c2nnc(Cc3ccccc3)o2)cn(C2CC2)c2cc(N3CCNCC3)c(F)cc12` is 1.9-fold higher in IC50: 46 µg/mL (≈ 107 µM) for the first, 86 µg/mL (≈ 193 µM) for the second.

Compared with `O=c1c(-c2nnc(-c3ccc([N+](=O)[O-])cc3)o2)cn(C2CC2)c2cc(N3CCNCC3)c(F)cc12`, `CCn1cc(-c2nnc(-c3ccc([N+](=O)[O-])cc3)o2)c(=O)c2cc(F)c(N3CCNCC3)cc21` is 9.3-fold higher in IC50: 8 µg/mL (≈ 16.8 µM) for the first, 74.3 µg/mL (≈ 160 µM) for the second.

Going from `O=c1c(-c2nnc(-c3ccc(Nc4ccccc4)cc3)o2)cn(C2CC2)c2cc(N3CCNCC3)c(F)cc12` to `CCn1cc(-c2nnc(-c3ccc(Nc4ccccc4)cc3)o2)c(=O)c2cc(F)c(N3CCNCC3)cc21`, the IC50 rises from 52 µg/mL (≈ 99.5 µM) to 88.6 µg/mL (≈ 174 µM) (1.7-fold).

Compared with `O=c1c(-c2nnc(COc3ccc4ccccc4c3)o2)cn(C2CC2)c2cc(N3CCNCC3)c(F)cc12`, `O=c1c(-c2nnc(COc3cccc4ccccc34)o2)cn(C2CC2)c2cc(N3CCNCC3)c(F)cc12` is 6-fold higher in IC50: 16 µg/mL (≈ 31.3 µM) for the first, 96.2 µg/mL (≈ 188 µM) for the second.

First: O=c1c(-c2nnc(COc3ccccc3)o2)cn(C2CC2)c2cc(N3CCNCC3)c(F)cc12
Second: CCn1cc(-c2nnc(COc3ccccc3)o2)c(=O)c2cc(F)c(N3CCNCC3)cc21
The IC50 of the first is 1.6-fold lower: 48.6 µg/mL (≈ 105 µM) for the first, 76.8 µg/mL (≈ 171 µM) for the second.

`CCn1cc(-c2nnc(-c3ccccc3)o2)c(=O)c2cc(F)c(N3CCNCC3)cc21` and `CCn1cc(-c2nnc(Cc3ccccc3)o2)c(=O)c2cc(F)c(N3CCNCC3)cc21` are within 1.5-fold of each other in IC50: 112 µg/mL (≈ 267 µM) for the first, 118 µg/mL (≈ 273 µM) for the second.

Compared with `CCn1cc(-c2nnc(COc3ccc4ccccc4c3)o2)c(=O)c2cc(F)c(N3CCNCC3)cc21`, `CCn1cc(-c2nnc(COc3cccc4ccccc34)o2)c(=O)c2cc(F)c(N3CCNCC3)cc21` is 1.6-fold higher in IC50: 80.2 µg/mL (≈ 161 µM) for the first, 127 µg/mL (≈ 254 µM) for the second.

Work on `CN(C)/N=N/c1[nH]cnc1C(N)=O` [DACARBAZINE] yielded an IC50 of 35 µg/mL (≈ 192 µM).
